From BindingDB's records for PubMed 36069713 (China Pharmaceutical University, 2022) come the findings set out here.

The nature of the assay: Agonist activity at STING in STING knockout human THP-1 cells harboring IRF-inducible luciferase reporter construct assessed as increase in relative […] unit incubated for 12 hrs by Quanti-luc reagent based assay.

For orientation: EC50 means the midpoint of the concentration-response curve. For the molecule `CC[C@H](CC(=O)c1cc2cc(OC)c(OC)cc2[se]1)C(=O)O`, the concentration for a half-maximal effect (EC50) was greater than 100 µM.
